The subject of assay [1] is reactive oxygen species (ROS) in DHER14 cells. Description: Inhibition of ROS production, fluorescent dye DHDCF. The class given is cell-based. The procedure:
FIG. 3 represents cellular ROS levels as determined using a fluorescence assay in the presence of CB, NOXi and NAC antioxidants.
The concentration of reactive oxygen species (ROS) in DHER14 cells following administration of antioxidants was determined using the ROS sensitive fluorescent dye DHDCF (fluoresceine derivative). […] The efficacy of CB in reducing ROS was about ˜50 fold better then these two known antioxidants.

The subject of assay [2] is JNK (c-Jun NH2-terminal kinase). As to conditions: DHER14 cells exposed to cisplatin (CDDP, 30 μM).
Experimental: (§1) In order to show the efficacy of CB against a stimulant that activates oxidative stress, an inhibition assay of both JNK (c-Jun NH2-terminal kinase) and p38 enzymes in tissue culture was performed.
(§2) NIH3T3 cells overexpressing EGF receptor (DHER14 cells) (55) were exposed to cisplatin (CDDP, 30 μM) which activates specific enzymes involved in apoptosis including JNK and p38.
(§3) Two known antioxidants were used as positive controls, NOXi (at 300 and 1000 μM) and NAC (NAC) (at 1000 μM).
The test system of assay [3] is p38. Conditions: DHER14 cells exposed to cisplatin (CDDP, 30 μM).
Experimental: as §1, §2, §3
The mark [4] stands for this setting: 20 μM, detected by specific antibodies.

For the molecule `CC(=O)N[C@@H](CS)C(=O)O` [NAC, N-acetyl cysteine, reference compound], the “efficiency in reducing ROS compared with CB at 20 μM” value in assay [1] (1000 μM) is “as efficient as”. Further, the “efficacy against JNK phosphorylation compared with CB at 20 μM” value in assay [2] (1 mM) is given as “similar”. Besides, the “efficacy against p38 phosphorylation compared with CB at 20 μM” value in assay [3] (1 mM) was “similar”.
For “N-Acetyl Cysteine-Glycine-Proline-Cysteine-Amid [CB]”, the ROS level entry in assay [1] (20 μM) is on record as “reduction of ROS below normal levels was prominent”. Further, in assay [1] (CB 20 μM versus 1000 μM NAC or 1000 μM NOXi), the “efficacy in reducing ROS relative to NOXi and NAC” value was roughly 50 fold. In addition, the “phosphorylated JNK” value in assay [2] (setting [4]) was “not detected at all”. The “phosphorylated form of JNK” value in assay [2] (increasing concentrations) was “dramatic reduction”. The “phosphorylated p38” value in assay [3] (setting [4]) is “not detected at all”. In addition, the “phosphorylated form of p38” value in assay [3] (increasing concentrations) is listed as “dramatic reduction”.
